Measurements as given in patent US20030162788A1, “Combination of MTP inhibitors or apoB-secretion inhibitors with fibrates for use as pharmaceuticals” (Boehringer Ingelheim Pharma KG, priority 2002, published 2003).

Columns and labels:
fa/fa rats [1] = test: Hepatic steatosis: lipid content (triglycerides, free fatty acids) in the liver of fa/fa rats; type: in vivo, rat; details: Example B; female fa/fa rats 38 weeks old; oral; MTP inhibitor 0.3 mg/kg once a day (four times); livers removed 24 hours after last dose
Protocol: In addition, the liver may be removed in order to determine the hepatic steatosis by measuring the lipid content (triglycerides, free fatty acids, cholesterol) in this organ. To do this, 200 mg of liver are homogenised after the addition of 2 ml of isopropanol and extracted for 10 min with shaking. The extract is centrifuged for 10 min at 4° C. and 4000 rpm and one aliquot of the supernatant is used to determine the lipid parameters. The lipids in the liver are measured using commercially available test kits following the manufacturer's instructions (for triglycerides: Triglycerid-Duo S made by BIOMED Labordiagnostik GmbH, Oberschleiβheim; for cholesterol: Cholesterin-Duo S made by BIOMED Labordiagnostik GmbH, Oberschleiβheim; for free fatty acids: NEFA C made by Wako Chemicals GmbH, Neuss).
The MTP inhibitor leads to an increase in the triglycerides and the free fatty acids in the liver (FIGS. 3a and 3b). By combining it with the fibrate, the lipid accumulation caused by the MTP inhibitor is lowered by about 50% (triglycerides in the liver) or by about 80% (free fatty acids in the liver).

fa/fa rats [2] = test: Cholesterol and triglycerides in the plasma of hyperlipaemic fa/fa rats after oral treatment; details: for lowering of cholesterol in the plasma compared with the control group / lowering of triglycerides in the plasma compared with the control group: Example A, female fa/fa rats 33 weeks old, MTP inhibitor 1 mg/kg once a day (four times), bezafibrate 100 mg/kg twice a day (eight times), blood 24 hours after last MTP inhibitor dose or 15 hours after last fibrate dose
Protocol: The effectiveness of the combination of an MTP inhibitor with a fibrate and the effect on hepatic steatosis and liver toxicity can be tested in vivo as follows. Hyperlipaemic rats (e.g. of the rat strain fa/fa) are given the active substances as a suspension in 0.45% NaCl and 5% polyethyleneglycol 400 by oral route using an oesophageal tube (5 ml/kg of body weight). The substances may be given once or several times a day for a period of 4 days, or alternatively over a longer period. The day after the last dose, blood samples are taken by puncturing the retroorbital venous plexus and plasma is prepared. The concentrations of cholesterol and triglycerides in the plasma and the activities of the liver enzymes (e.g. ALT, AST, GLDH) are determined by well-known methods of clinical chemistry. These substrates and enzymes in the plasma may be measured for example with a HITACHI 917 Automatic Analyzer using reagents supplied by Roche Diagnostics (Mannheim) in accordance with the following procedures laid down by Roche Diagnostics:
cholesterol: BM/HITACHI 917, Boehringer Mannheim System No. 1 491 458
triglycerides: BM/HITACHI 917, Boehringer Mannheim System No. 1 730 711.
Female fa/fa rats 33 weeks old were either treated four times with an MTP inhibitor (given orally once a day at 7 a.m.) or treated eight times with a fibrate (given twice a day by oral route at 7 a.m. and 4 p.m.) A third group were given both the MTP inhibitor and the fibrate. The MTP inhibitor was 9-[4-[4-[2-(4-trifluoromethylphenyl)benzoylamino]piperidin-1-yl]butyl]-N-(2,2,2-trifluoro-ethyl)-9H-fluorene-9-carboxamide in a dosage of 1 mg/kg. The fibrate was bezafibrate in a dosage of 100 mg/kg. 24 hours after the last dose of the MTP inhibitor or 15 hours after the last dose of the fibrate blood samples were taken from the animals and the cholesterol, triglycerides and liver enzymes in the plasma were measured.
Male fa/fa rats 32 weeks old were either treated four times with an MTP inhibitor (given orally once a day between about 7 and 8 a.m.) or treated eight times with a fibrate (given twice a day by oral route between about 7 and 8 a.m. and at 4 p.m.) Another group were given both the MTP inhibitor and the fibrate. […] The fibrate was fenofibrate in a dosage of 100 mg/kg. 24 hours after the last dose of the MTP inhibitor or 15 hours after the last dose of fenofibrate, blood was taken from the animals and the levels of cholesterol, triglycerides and liver enzymes in the plasma were measured.
Male fa/fa rats 33 weeks old were either treated four times with an MTP inhibitor (given orally once a day between about 7 and 8 a.m.) or treated eight times with a fibrate (given twice a day by oral route between about 7 and 8 a.m. and at 4 p.m.) Another group were given both the MTP inhibitor and the fibrate. […] The fibrate was fenofibrate in a dosage of 100 mg/kg. 24 hours after the last dose of the MTP inhibitor or 15 hours after the last dose of fenofibrate, blood was taken from the animals and the levels of cholesterol, triglycerides and liver enzymes in the plasma were measured.

fa/fa rats [3] = test: Activities of liver enzymes (ALT, AST, GLDH) in the plasma of fa/fa rats (liver toxicity); type: in vivo, rat; details: for ALT [U/I], MW ± SEM / AST [U/I], MW ± SEM: plasma, fenofibrate 100 mg/kg twice a day (eight times)
Source text: The horizontal line in the diagram indicates three times the level in the control group and is interpreted as the threshold value for a clearly toxic side effect.).

[4] = Example A, female fa/fa rats 33 weeks old, oral, MTP inhibitor 1 mg/kg once a day (four times)
[5] = Example D, male fa/fa rats 33 weeks old, compound (a) 3 mg/kg once a day, fenofibrate 100 mg/kg twice a day
[6] = Example D, male fa/fa rats 33 weeks old, compound (a) 3 mg/kg oral once a day
[7] = Example D, male fa/fa rats 33 weeks old, oral, compound (a) 3 mg/kg once a day (four times)
[8] = Example C, male fa/fa rats 32 weeks old, compound (c) 10 mg/kg once a day, fenofibrate 100 mg/kg twice a day
[9] = Example C, male fa/fa rats 32 weeks old, compound (c) 10 mg/kg oral once a day
[10] = Example C, male fa/fa rats 32 weeks old, oral, compound (c) 10 mg/kg once a day (four times)
[11] = Example D, male fa/fa rats 33 weeks old, fenofibrate 100 mg/kg twice a day

Row | SMILES | lowering of cholesterol in the plasma compared with the control group (fa/fa rats [2]) [%] | lowering of triglycerides in the plasma compared with the control group (fa/fa rats [2]) [%] | ALT [U/I], MW ± SEM (fa/fa rats [3]; [7]) [U/I] | AST [U/I], MW ± SEM (fa/fa rats [3]; [7]) [U/I] | reduction of cholesterol in the plasma compared with the control group (fa/fa rats [2]; [8]) [%] | reduction of triglycerides in the plasma compared with the control group (fa/fa rats [2]; [8]) [%] | ALT [U/I], MW ± SEM (fa/fa rats [3]; [10]) [U/I] | AST [U/I], MW ± SEM (fa/fa rats [3]; [10]) [U/I] | also measured
1 | O=C(NC1CCN(CCCCC2(C(=O)NCC(F)(F)F)c3ccccc3-c3ccccc32)CC1)c1ccccc1-c1ccc(C(F)(F)F)cc1 [9-[4-[4-[2-(4-trifluoromethylphenyl)benzoylamino]piperidin-1-yl]butyl]-N-(2,2,2-trifluoro-ethyl)-9H-fluorene-9-carboxamide] | 29 | 84 | – | – | – | – | – | – | free fatty acids in the liver (fa/fa rats [1]): increase; triglycerides in the liver (fa/fa rats [1]): increase; increase in the ALT activity in the blood plasma compared with the control group (fa/fa rats [3]; [4]): 5.2 fold; increase in the GLDH activity in the blood plasma compared with the control group (fa/fa rats [3]; [4]): 7.7 fold
2 | Cn1cc(NC(=O)c2ccccc2-c2ccc(C(F)(F)F)cc2)cc1C(=O)NCC#Cc1ccc(-c2ccccc2)cc1 [Compound (a), N-[3-(Biphenyl-4-yl)-prop-2-ynyl]-4-(4′-trifluoromethylbiphenyl-2-carbonylamino)-1-methyl-pyrrole-2-carboxylic acid amide] | – | – | 232.8 ± 67.8 | 218.4 ± 57.1 | – | – | – | – | reduction of cholesterol in the plasma compared with the control group (fa/fa rats [2]; [5]): 26%; reduction of triglycerides in the plasma compared with the control group (fa/fa rats [2]; [5]): 76%; increase in the activity of ALT in the plasma (fa/fa rats [3]; [6]): 5.1 fold; increase in the activity of AST in the plasma (fa/fa rats [3]; [6]): 6.7 fold
3 | Cn1cc(NC(=O)c2ccccc2-c2ccc(C(F)(F)F)cc2)cc1C(=O)NCc1ccc(N2CCC3(CCCCC3)CC2)cc1 [Compound (c), N-[4-(3-Aza-spiro[5.5]undec-3-yl)-phenylmethyl]-4-(4′-trifluoromethylbiphenyl-2-carbonylamino)-1-methyl-pyrrole-2-carboxylic acid amide] | – | – | – | – | 58 | 94 | 232.9 ± 40.6 | 232.7 ± 34.2 | increase in the activity of ALT in the plasma (fa/fa rats [3]; [9]): 3.6 fold; increase in the activity of AST in the plasma (fa/fa rats [3]; [9]): 4.5 fold
4 | CC(C)OC(=O)C(C)(C)Oc1ccc(C(=O)c2ccc(Cl)cc2)cc1 [Fenofibrate, fenofibrate] | – | – | 44.7 ± 5.3 | 33.5 ± 3.7 | 15 | 20 | 47.0 ± 4.9 | 30.3 ± 2.7 | increase of cholesterol in the plasma compared with the control group (fa/fa rats [2]; [11]): 10%; increase of triglycerides in the plasma compared with the control group (fa/fa rats [2]; [11]): 38%
5 | CC(C)(Oc1ccc(CCNC(=O)c2ccc(Cl)cc2)cc1)C(=O)O [bezafibrate] | 47 | 56 | – | – | – | – | – | – | –
